# Experimental data from patent US20230242591A1, “REGULATORY T CELL EPITOPES AND D[…]-COV-2 ANTIGENS” (EPIVAX, INC., priority 2020, published 2023).
# Test system: CD4+ effector memory T cells
# Format: cell-based, human
sequence,measurement,value
PSFYVYSRVKNLNSSRVPDLLV (Severe acute respiratory syndrome coronavirus 2) [SEQ ID NO: 7],suppression of proliferation and activation of CD4+ effector T cells,Suppressed Proliferation and Activation
